Results: US12606523B2, “Deuterated organic compounds and uses thereof” (ENGRAIL THERAPEUTICS, INC., priority 2022, dated 2026)

How the values were obtained:
[1] = target: T1, human Serotonin 5-HT1A receptor (Homo sapiens, UniProt P08908); details: cAMP; % of reference agonist at EC100
T1 sequence (P08908 1-422): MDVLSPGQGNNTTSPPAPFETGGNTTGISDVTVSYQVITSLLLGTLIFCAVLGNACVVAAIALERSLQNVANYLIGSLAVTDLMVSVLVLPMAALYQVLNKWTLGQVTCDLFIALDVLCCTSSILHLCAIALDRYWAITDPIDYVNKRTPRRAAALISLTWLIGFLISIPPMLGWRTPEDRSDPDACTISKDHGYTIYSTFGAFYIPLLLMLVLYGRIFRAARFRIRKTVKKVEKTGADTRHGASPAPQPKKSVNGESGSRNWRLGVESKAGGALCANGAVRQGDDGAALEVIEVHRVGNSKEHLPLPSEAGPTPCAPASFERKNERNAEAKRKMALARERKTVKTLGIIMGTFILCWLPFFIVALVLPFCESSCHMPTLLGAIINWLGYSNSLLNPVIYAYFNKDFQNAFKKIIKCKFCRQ
Method: (§1) SPA ^35S-GTPgS experiments are conducted with membrane preparations. IP-One and cAMP HTRF assays are conducted with recombinant cell lines.
(§2) Agonist activity of test compounds is expressed as a percentage of the activity of the reference agonist at its EC100 concentration. Antagonist activity of the test compound is expressed as a percentage of the inhibition of reference agonist activity at its EC80 concentration.

[2] = target: T2, human Serotonin 5-HT2A receptor (Homo sapiens, UniProt P28223); details: IP-one; % of reference agonist at EC100
Method: as §1, §2

Sprague Dawley rats [3] = assay: Headshake response; assay type: in vivo, rat
Method: Adult male Sprague Dawley rats are used. […] DOI (3 mg/kg) is dissolved in saline and administered IP at a dose volume of 1 ml/kg (10 minutes prior to test).
The headshake response is a rapid, rhythmic shaking of the head in a radial motion. Data are analyzed by ANOVA followed by post hoc analysis where appropriate.

Sprague Dawley rats [4] = assay: DOI-induced headshake response; assay type: in vivo; details: rat
Method: Adult male Sprague Dawley rats are used. […] DOI (3 mg/kg) is dissolved in saline and administered IP at a dose volume of 1 ml/kg (10 minutes prior to test). Ketanserin (1 mg/kg) is dissolved in saline and injected IP 30 minutes prior to DOI at a dose volume of […].
Rats are then injected with DOI and headshakes are recorded 10 minutes after DOI injection for 10 minutes using video cameras. The headshake response is a rapid, rhythmic shaking of the head in a radial motion. Data is analyzed by ANOVA followed by post hoc analysis where appropriate.

5-HT2B = 5-HT2B (Homo sapiens, UniProt P41595); assay: Functional assay, antagonist mode (Table 6); assay type: cell-based
Sprague Dawley rats [5] = assay: Touchscreen-based rat Probabilistic Reward Task; assay type: in vivo
Description: The Probabilistic Reward Task (PRT) uses visual discrimination methodology to quantify reward responsiveness to both identify deficits and characterize drug-induced improvements.
Male Sprague Dawley rats are used in the present study.
Briefly, a custom-built Plexiglas chamber (25×30×35 cm) is situated in a sound- and light-attenuating enclosure (40×60×45 cm). A 17″ touch-sensitive screen (1739L, ELO TouchSystems, Menlo Park, CA) comprises the inside right-hand wall of the enclosure. An infusion pump (PHM-100-5, Med Associates, St. Albans, VT) outside the enclosure is used to deliver sweetened condensed milk solution into the shallow reservoir of a custom-designed aluminum receptacle. The receptacle is mounted 3 cm above the floor bars and centered on the left-hand inside wall. Both touchscreen and fluid reservoir are easily accessible to the subject. A speaker bar (NQ576AT, Hewlett-Packard, Palo Alto, CA) mounted above the touchscreen is used to emit audible feedback. All experimental events and data collection are programmed in E-Prime Professional 2.0 (Psychology Software Tools, Inc., Sharpsburg, PA). […]
Following line-length discrimination training, probabilistic reinforcement schedules are introduced. […] These probabilistic contingencies are assessed across 5 consecutive sessions prior to initiation of drug testing. […]

Sprague Dawley rats [6] = details: rat, in vivo, po, 5 mg/kg
Description: (§3) The Conditioned Avoidance Response (CAR) Test is an animal model screening for antipsychotic drugs.

[7] = target: T3, human Serotonin 5-HT7A receptor (Homo sapiens, UniProt P34969); assay: Radioligand binding competition, filtration, [3H]-LSD, CHO-K1 membranes
T3 construct: expressed in transfected cells; host or cells: CHO-K1

5-HT1A = target: T4, 5-HT1A (Homo sapiens, UniProt P08908); assay: Functional assay, antagonist mode (Table 6); assay type: cell-based; details: read-out: 5-HT1A (antagonist mode) Emax
T4 sequence (P08908 1-422): T1 sequence (P08908 1-422)

[8] = target: T3, human Serotonin 5-HT7A receptor; assay: cAMP HTRF functional assay, antagonist mode; assay type: cell-based
[9] = target: human Dopamine D2L receptor (Homo sapiens, UniProt P14416); details: cAMP, % inhibition of reference agonist at EC80
Method: as §1, §2

Sprague Dawley rats [10] = assay: Conditioned Avoidance Response test; details: rat
Description: as §3

[11] = target: human Dopamine D2S receptor (Homo sapiens, UniProt P14416); details: cAMP, % inhibition of reference agonist at EC80
Method: (§4) IP-One and cAMP HTRF assays are conducted with recombinant cell lines.
as §2

[12] = target: human Dopamine D3 receptor (Homo sapiens, UniProt P35462); details: GTPγS; % inhibition of reference agonist at EC80
Method: as §1, §2

[13] = target: T5, human Dopamine D4.4 receptor (Homo sapiens, UniProt P21917); details: cAMP; % inhibition of reference agonist at EC80
T5 sequence (P21917 1-419): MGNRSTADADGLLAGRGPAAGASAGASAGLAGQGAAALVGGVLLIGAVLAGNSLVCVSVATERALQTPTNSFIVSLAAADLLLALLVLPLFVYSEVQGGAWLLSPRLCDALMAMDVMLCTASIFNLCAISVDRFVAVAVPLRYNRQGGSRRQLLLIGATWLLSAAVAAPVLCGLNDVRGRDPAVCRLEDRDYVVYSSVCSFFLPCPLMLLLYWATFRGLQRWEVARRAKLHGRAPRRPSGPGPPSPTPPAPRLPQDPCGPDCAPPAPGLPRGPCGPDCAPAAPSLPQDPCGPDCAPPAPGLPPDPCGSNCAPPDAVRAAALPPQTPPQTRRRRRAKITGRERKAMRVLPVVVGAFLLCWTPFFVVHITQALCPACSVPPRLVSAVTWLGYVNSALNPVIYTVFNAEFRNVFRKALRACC
Method: as §1, §2

[14] = target: T2, human Serotonin 5-HT2A receptor; assay: IP-One HTRF functional assay, antagonist mode; assay type: cell-based; set-up: expressed in transfected cells; host or cells: CHO-K1; details: % inhibition of reference agonist at EC80
Method: as §4, §2

[15] = 2.5 and 5 mg/kg orally 4 hours prior to test
[16] = 0.5 mg/kg i.p. 30 minutes prior to test

T2 sequence (P28223 whole entry): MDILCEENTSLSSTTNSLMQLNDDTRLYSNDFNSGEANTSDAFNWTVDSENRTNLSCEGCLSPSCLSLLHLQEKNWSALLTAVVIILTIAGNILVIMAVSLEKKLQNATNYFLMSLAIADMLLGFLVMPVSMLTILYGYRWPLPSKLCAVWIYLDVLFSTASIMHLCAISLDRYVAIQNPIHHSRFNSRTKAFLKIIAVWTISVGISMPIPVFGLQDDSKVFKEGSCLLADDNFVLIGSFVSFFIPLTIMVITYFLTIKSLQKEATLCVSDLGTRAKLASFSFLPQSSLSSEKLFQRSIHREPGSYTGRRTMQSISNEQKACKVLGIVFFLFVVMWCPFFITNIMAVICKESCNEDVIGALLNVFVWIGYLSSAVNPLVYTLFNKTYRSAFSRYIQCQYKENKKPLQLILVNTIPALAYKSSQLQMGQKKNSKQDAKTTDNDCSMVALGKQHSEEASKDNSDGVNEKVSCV
T3 sequence (P34969 1-445 isoform P34969-2): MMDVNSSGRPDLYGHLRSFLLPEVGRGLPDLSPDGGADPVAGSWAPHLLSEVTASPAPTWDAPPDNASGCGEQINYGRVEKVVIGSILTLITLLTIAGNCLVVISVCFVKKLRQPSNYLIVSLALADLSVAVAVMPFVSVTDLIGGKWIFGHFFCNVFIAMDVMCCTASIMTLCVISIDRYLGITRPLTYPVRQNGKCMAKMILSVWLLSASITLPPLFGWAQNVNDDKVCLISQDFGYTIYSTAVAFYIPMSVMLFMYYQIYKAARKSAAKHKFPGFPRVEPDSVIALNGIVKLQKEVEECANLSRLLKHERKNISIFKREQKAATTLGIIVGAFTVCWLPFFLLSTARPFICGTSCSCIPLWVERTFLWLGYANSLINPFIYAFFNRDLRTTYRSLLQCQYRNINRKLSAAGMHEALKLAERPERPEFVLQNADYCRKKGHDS
Chain of human Dopamine D2L receptor (P14416 whole entry): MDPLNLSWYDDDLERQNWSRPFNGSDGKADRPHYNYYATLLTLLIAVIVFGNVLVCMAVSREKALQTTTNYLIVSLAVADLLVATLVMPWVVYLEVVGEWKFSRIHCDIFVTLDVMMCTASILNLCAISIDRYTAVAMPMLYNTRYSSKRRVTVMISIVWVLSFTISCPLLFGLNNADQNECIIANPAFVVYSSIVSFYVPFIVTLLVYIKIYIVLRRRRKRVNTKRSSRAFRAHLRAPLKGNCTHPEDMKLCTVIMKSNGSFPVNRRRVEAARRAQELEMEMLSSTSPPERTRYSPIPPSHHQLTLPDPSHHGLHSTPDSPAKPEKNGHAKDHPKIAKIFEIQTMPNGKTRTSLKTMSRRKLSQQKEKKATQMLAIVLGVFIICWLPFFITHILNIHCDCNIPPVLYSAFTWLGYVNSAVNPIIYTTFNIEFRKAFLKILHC
Chain of human Dopamine D3 receptor (P35462 whole entry): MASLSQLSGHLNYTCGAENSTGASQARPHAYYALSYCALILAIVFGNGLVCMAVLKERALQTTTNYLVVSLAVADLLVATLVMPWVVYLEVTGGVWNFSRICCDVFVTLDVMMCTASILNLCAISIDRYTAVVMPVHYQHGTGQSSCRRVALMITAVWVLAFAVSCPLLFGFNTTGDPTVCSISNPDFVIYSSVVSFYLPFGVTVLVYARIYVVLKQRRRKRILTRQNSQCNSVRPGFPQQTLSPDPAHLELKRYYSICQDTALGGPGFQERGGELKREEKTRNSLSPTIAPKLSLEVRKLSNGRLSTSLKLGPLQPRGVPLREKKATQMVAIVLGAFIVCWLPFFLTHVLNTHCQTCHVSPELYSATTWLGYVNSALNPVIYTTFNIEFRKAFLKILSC
Chain of human Dopamine D2S receptor (P14416 1-414 isoform P14416-2): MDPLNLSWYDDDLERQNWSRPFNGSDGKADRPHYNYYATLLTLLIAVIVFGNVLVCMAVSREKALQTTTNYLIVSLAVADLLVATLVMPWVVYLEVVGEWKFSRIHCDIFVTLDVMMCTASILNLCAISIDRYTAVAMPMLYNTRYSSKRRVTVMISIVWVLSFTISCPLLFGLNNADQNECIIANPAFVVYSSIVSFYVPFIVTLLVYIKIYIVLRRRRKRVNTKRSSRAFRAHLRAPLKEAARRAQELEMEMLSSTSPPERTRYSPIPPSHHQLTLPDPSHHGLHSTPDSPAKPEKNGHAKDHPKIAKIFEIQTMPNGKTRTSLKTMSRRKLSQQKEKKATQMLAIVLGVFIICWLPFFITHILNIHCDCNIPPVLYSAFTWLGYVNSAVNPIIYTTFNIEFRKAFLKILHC
Chain of 5-HT2B (P41595 whole entry): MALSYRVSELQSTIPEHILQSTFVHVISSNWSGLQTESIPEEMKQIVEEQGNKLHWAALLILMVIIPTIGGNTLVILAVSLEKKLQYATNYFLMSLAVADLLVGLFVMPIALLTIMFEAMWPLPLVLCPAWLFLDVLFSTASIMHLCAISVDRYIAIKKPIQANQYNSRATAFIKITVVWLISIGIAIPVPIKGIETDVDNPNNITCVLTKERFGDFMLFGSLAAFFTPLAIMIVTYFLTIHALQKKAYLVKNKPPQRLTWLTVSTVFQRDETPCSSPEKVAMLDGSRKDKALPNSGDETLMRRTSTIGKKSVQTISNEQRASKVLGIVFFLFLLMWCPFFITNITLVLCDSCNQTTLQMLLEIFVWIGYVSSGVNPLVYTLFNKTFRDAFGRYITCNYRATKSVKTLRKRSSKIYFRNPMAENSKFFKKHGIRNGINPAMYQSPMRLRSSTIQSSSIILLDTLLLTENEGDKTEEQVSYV

## CNc1cc(OC)c(C(=O)N[C@H]2CCN(Cc3ccccc3)[C@H]2C)cc1Cl (racemic) [Nemonapride, (±)-cis-N-(1-Benzyl-2-methylpyrrolidin-3-yl)-5-chloro-2-methoxy-4-methylaminobenzamide]
[1]
  5-HT1A (agonist mode) Top % Activation at maximal concentration: cAMP 52%
[2]
  5-HT2A (agonist mode) Top % Activation at maximal concentration: IP-one 48%

## COc1cc(CC(C)N)c(OC)cc1I (centres unmarked) [DOI, reference compound]
Sprague Dawley rats [3]; rat, 3 mg/kg IP 10 minutes prior to test
  number of headshakes compared to vehicle: significantly increases
Sprague Dawley rats [4]; DOI 3 mg/kg IP
  number of headshakes compared to vehicle: significantly increases

## [2H]C([2H])([2H])Nc1cc(OC)c(C(=O)N[C@H]2CCN(C([2H])([2H])c3ccccc3)[C@H]2C)cc1Cl [Example A1, 5-Chloro-N-((2S,3S)-1-(dideutero(phenyl)methyl)-2-methylpyrrolidin-3-yl)-2-methoxy-4-(trideuteromethylamino)benzamide]
5-HT2B
  Emax: 92%
Sprague Dawley rats [3]; rat, 1, 5 and 10 mg/kg PO 4 hours prior to test
  number of headshakes compared to vehicle: no significant increase
Sprague Dawley rats [5]; 0.5 mg/kg orally, n=8, paired t-test p=0.006
  log b vs vehicle, Cohen's d: 1.21
Sprague Dawley rats [5]; 1 mg/kg orally, n=8, paired t-test p=0.04
  log b vs vehicle, Cohen's d: 0.75
Sprague Dawley rats [6]
  escape failures compared to vehicle: increase
[7]
  Ki: 74.4 nM
5-HT1A
  Emax: 63%
[8]
  IC50: 2240 nM
[9]
  D2 (antagonist mode) Top % Inhibition at maximal concentration, D2L: cAMP 81 (D2L) %
Sprague Dawley rats [4]; 1 mg/kg PO 4 hours prior, DOI 3 mg/kg IP, p=0.051
  DOI-induced headshake responses: non-significant trend to decreasing
Sprague Dawley rats [4]; 5 and 10 mg/kg PO 4 hours prior, DOI 3 mg/kg IP
  DOI-induced headshake responses: decrease
Sprague Dawley rats [10]; [15]
  number of avoidance responses compared to vehicle: significantly decrease
  percent avoidance compared to vehicle: significantly decrease

## O=C(c1ccc(F)cc1)C1CCN(CCn2c(=O)[nH]c3ccccc3c2=O)CC1 [Ketanserin, reference compound]
Sprague Dawley rats [4]; 1 mg/kg IP 30 minutes prior to DOI 3 mg/kg IP
  DOI-induced headshake responses: decrease

## CNc1cc(OC)c(C(=O)N[C@H]2CCN(Cc3ccccc3)[C@H]2C)cc1Cl [cis (S,S) nemonapride, N-[(2S,3S)-1-benzyl-2-methylpyrrolidin-3-yl]-5-chloro-2-methoxy-4-(methylamino)benzamide]
[11]
  D2 (antagonist mode) Top % Inhibition at maximal concentration, D2S: cAMP 88 (D2S) %
[1]
  5-HT1A (agonist mode) Top % Activation at maximal concentration: cAMP 17%
[12]
  D3 (antagonist mode) Top % Inhibition at maximal concentration: GTPγS 117%
[13]
  D4 (antagonist mode) Top % Inhibition at maximal concentration: cAMP 67%
[2]
  5-HT2A (agonist mode) Top % Activation at maximal concentration: IP-one 29%
[7]
  IC50: 167 nM
  Ki: 117 nM
[9]
  D2 (antagonist mode) Top % Inhibition at maximal concentration, D2L: cAMP 84 (D2L) %
[14]
  5-HT2A (antagonist mode) Top % Inhibition at maximal concentration: IP-one 52%

## Cc1nc2n(c(=O)c1CCN1CCC(c3noc4cc(F)ccc34)CC1)CCCC2 [risperidone, Risperidone, reference compound]
Sprague Dawley rats [10]; [16]
  number of avoidance responses compared to vehicle: significantly decrease
  percent avoidance compared to vehicle: significantly decrease
